According to patent US20080193398A1, “Derivatives of Heptaazaphenalene, Methods for Obtaining Them, and Their Use as Protecting Agents Against Uv Radiation” (ISDIN, S.A., priority 2005, published 2008):

What was measured:
[1] = UV absorption (UV λmax and εmax) in solution; format: physicochemical
Description: There follow some examples where the UV λmax and εmax have been measured according to general methods known for the person skilled in the art by way of non-restrictive illustration of the present invention.

Compound	melting point	UV λmax ([1]; DMSO)	εmax ([1]; DMSO)	UV λmax ([1]; CHCl3)	εmax ([1]; CHCl3)
CCOC(=O)/C=C/c1ccc(NC2=NC3=NC(Nc4ccc(/C=C/C(=O)OCC)cc4)=NC4=NC(Nc5ccc(/C=C/C(=O)OCC)cc5)=NC(=N2)N34)cc1 [Example 22, 2,5,8-tris-(4-((E)-3-ethoxy-3-oxoprop-1-enyl)phenylamino)-1,3,4,6,7,9,9b-heptaazaphenalene]	> 275 °C	359 nm	135900 M⁻¹ cm⁻¹		
C(=C\c1ccc(NC2=NC3=NC(Nc4ccc(/C=C/c5ccccc5)cc4)=NC4=NC(Nc5ccc(/C=C/c6ccccc6)cc5)=NC(=N2)N34)cc1)/c1ccccc1 [Example 28, 2,5,8-tris-((4-(E)-styrylphenyl)amino)-1,3,4,6,7,9,9b-heptaazaphenalene]	> 270 °C	367 nm	163000 M⁻¹ cm⁻¹		
CC(C)[C@@H]1CC[C@@H](C)C[C@H]1OC(=O)c1ccc(NC2=NC3=NC(Nc4ccc(C(=O)O[C@@H]5C[C@H](C)CC[C@H]5C(C)C)cc4)=NC4=NC(Nc5ccc(C(=O)O[C@@H]6C[C@H](C)CC[C@H]6C(C)C)cc5)=NC(=N2)N34)cc1 [Example 30, 2,5,8-tris-(4-(L-menthylcarbonyl)phenylamino)-1,3,4,6,7,9,9b-heptaazaphenalene]	202 to 206 °C	326 nm	118000 M⁻¹ cm⁻¹		
CC1CC(OC(=O)c2ccc(NC3=NC4=NC(Nc5ccc(C(=O)OC6CC(C)CC(C)(C)C6)cc5)=NC5=NC(Nc6ccc(C(=O)OC7CC(C)CC(C)(C)C7)cc6)=NC(=N3)N45)cc2)CC(C)(C)C1 (stereo not drawn) [Example 31, 2,5,8-tris-(4-((3,3,5-trimethylcyclohexyloxy)carbonyl)phenylamino)-1,3,4,6,7,9,9b-heptaazaphenalene]	> 275 °C	329 nm	143000 M⁻¹ cm⁻¹		
CCCCC(CC)COC(=O)/C=C/c1ccc(NC2=NC3=NC(Nc4ccc(/C=C/C(=O)OCC(CC)CCCC)cc4)=NC4=NC(Nc5ccc(/C=C/C(=O)OCC(CC)CCCC)cc5)=NC(=N2)N34)cc1 (stereo not drawn) [Example 32, 2,5,8-tris-(4-((E)-3-(2-ethylhexyloxy)-3-oxoprop-1-enyl)phenylamino)-1,3,4,6,7,9,9b-heptaazaphenalene]	213 to 216 °C	358 nm	154000 M⁻¹ cm⁻¹		
CCCCC(CC)COC(=O)/C=C/c1cccc(NC2=NC3=NC(Nc4cccc(/C=C/C(=O)OCC(CC)CCCC)c4)=NC4=NC(Nc5cccc(/C=C/C(=O)OCC(CC)CCCC)c5)=NC(=N2)N34)c1 (stereo not drawn) [Example 33, 2,5,8-tris-(3-((E)-3-(2-ethylhexyloxy)-3-oxoprop-1-enyl)phenylamino)-1,3,4,6,7,9,9b-heptaazafenaleno]	206 to 210 °C	290 nm	126000 M⁻¹ cm⁻¹		

The remaining lines, values ahead:

melting point	UV λmax ([1]; DMSO)	εmax ([1]; DMSO)	UV λmax ([1]; CHCl3)	εmax ([1]; CHCl3)	Compound
288 to 291 °C	329 nm	116000 M⁻¹ cm⁻¹			COC(=O)c1ccc(NC2=NC3=NC(Nc4ccc(C(=O)OC)cc4)=NC4=NC(Nc5ccc(C(=O)OC)cc5)=NC(=N2)N34)cc1 [Example 24, 2,5,8-tris-(4-(methoxycarbonyl)phenylamino)-1,3,4,6,7,9,9b-heptaazaphenalene]
215 to 222 °C			326 nm	119000 M⁻¹ cm⁻¹	CCCCCCC(CCCC)COC(=O)c1ccc(NC2=NC3=NC(Nc4ccc(C(=O)OCC(CCCC)CCCCCC)cc4)=NC4=NC(Nc5ccc(C(=O)OCC(CCCC)CCCCCC)cc5)=NC(=N2)N34)cc1 (stereo not drawn) [Example 36, 2,5,8-tris-(4-(2-butyloctyloxycarbonyl)phenylamino)-1,3,4,6,7,9,9b-heptaazaphenalene]
252 to 255 °C	324 nm	125000 M⁻¹ cm⁻¹			CCCCCCCCCCCCCCCCOC(=O)c1ccc(NC2=NC3=NC(Nc4ccc(C(=O)OCCCCCCCCCCCCCCCC)cc4)=NC4=NC(Nc5ccc(C(=O)OCCCCCCCCCCCCCCCC)cc5)=NC(=N2)N34)cc1 [Example 42, 2,5,8-tris-(4-(hexadecyloxycarbonyl)phenylamino)-1,3,4,6,7,9,9b-heptaazaphenalene]
